From PMC9704104, “Towards safer anti-inflammatory therapy: synthesis of new thymol–pyrazole hybrids as dual COX-2/5-LOX inhibitors” (Journal of Enzyme Inhibition and Medicinal Chemistry, 2022)
“And” between values parts separate entries of the source, which are not always exact repeats. Equal values may be shown once. Read-outs that look alike come from different tables or passages of the source. Marks after values point to notes of the source that are not given here.

Experiments:
gastric mucosa = test: In vivo gastric ulcerogenic activity (gross examination of gastric mucosa); conditions: fasted rats, 60 mg/kg orally, six hours after treatment
[1] = tested on: formalin-induced rat paw oedema; test: Formalin-induced paw oedema test (acute inflammation model); assay type: in vivo; conditions: for inhibition in vivo at 5 mg/kg: Rattus norvegicus; for % Relative potency (4h) diclofenac, Mean ± SD / % Relative potency (4h) diclofenac: relative to % inhibition of diclofenac at 4 h
Protocol: Animals Adult female albino rats weighing 150-250 g were used (Experimental Animal Centre in Alexandria University). All animals accessed to food and water ad libitum and were housed in 12 h dark/light cycle in a controlled condition at 23-250C. They were allowed to acclimatize for 1 week prior to experimentation. Procedures involving animals and their care were conducted in conformity with the Guide for the Care and Use of Laboratory Animals published by US National Institute of Health4 (NIH publication No. 83-23, revised) and following the ethical guidelines of Alexandria University on laboratory animals. In all tests, adequate considerations were adopted to reduce pain or discomfort of animals (Approved by AlexU-IACUC) 3. […]
Formalin-induced paw edema test (acute inflammation model):
A solution of freshly prepared formalin 5% was used as a phlogistic agent. A mark was made on the lateral malleolus of the rats’ paws delineating the injection sites. The initial volume of paw was measured by means of digital calibrated Vernier caliper .
After 45 minutes, 40 μl formalin were injected subcutaneously into the sub plantar tissue of the right hind paw of all groups under light ether anesthesia . An equal volume of saline was injected into the left hind paw and served as internal control for the degree of inflammation in the right hind paw. 5, 6 The volume of paw was measured in different treatment groups, 4 h following the formalin injection and the amount of increase in paw volume (edema volume) was calculated by subtracting the volumes before and 4 h after the injection of formalin. Edema was expressed as an increase in the volume of paw, and the percentage of edema inhibition (or percent protection against inflammation) for each rat and each group was calculated according to the following equation: […]
Where Vt is the mean volume of edema at specific time interval (4 h) and Vo is the mean volume of edema […]
Relative potency of the tested compounds was expressed as % inhibition of edema for the tested compounds

COX-1 = molecular target: T1, COX-1 (Ovis aries, UniProt P05979); test: In vitro COX-1 inhibitory assay (Cayman colorimetric COX (ovine) inhibitor screening assay kit); assay type: biochemical; conditions: mean of three replicates ± SD
T1 construct: purchased Cayman chemicals 560131
T1 sequence (P05979 25-600): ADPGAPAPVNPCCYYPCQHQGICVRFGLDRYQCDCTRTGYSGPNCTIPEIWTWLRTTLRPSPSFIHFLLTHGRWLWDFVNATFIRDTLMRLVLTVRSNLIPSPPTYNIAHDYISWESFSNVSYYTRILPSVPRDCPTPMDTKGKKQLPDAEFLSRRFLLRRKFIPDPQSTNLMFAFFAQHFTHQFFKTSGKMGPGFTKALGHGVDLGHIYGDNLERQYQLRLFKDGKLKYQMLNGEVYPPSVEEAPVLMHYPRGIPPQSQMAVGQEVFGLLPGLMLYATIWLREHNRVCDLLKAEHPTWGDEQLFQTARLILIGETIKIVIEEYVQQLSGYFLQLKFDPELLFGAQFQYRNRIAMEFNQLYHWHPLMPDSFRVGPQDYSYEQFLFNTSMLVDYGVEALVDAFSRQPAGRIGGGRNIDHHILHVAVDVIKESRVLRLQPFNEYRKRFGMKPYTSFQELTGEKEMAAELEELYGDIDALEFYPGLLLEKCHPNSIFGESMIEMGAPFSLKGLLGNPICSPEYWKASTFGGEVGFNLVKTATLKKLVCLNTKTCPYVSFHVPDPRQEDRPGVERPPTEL
Protocol: (Page: S20, Supplementary file).
Anti-inflammatory activity
In vitro COX-1 and COX-2 inhibitory assay […]
supplied by Cayman chemicals, Ann Arbor, MI, USA according to reported method 1. The colorimetric COX inhibitor screening assay utilizes the peroxidase component of cyclooxygenase. The peroxidase activity was assayed calorimetrically by monitoring the appearance of oxidized N,N,N',N'-tetramethyl-1,4-phenylenediamine (TMPD) at 590nm. The appearance of reagent was carried out following the instructions […]
The half- maximal inhibitor concentrations (IC50µM) were determined and the selectivity index (SI) values were calculated as IC50 (COX-1)/IC50 (COX-2).
1) Background wells- 160 µL of assay buffer and 10 µL of heme were added to background wells.
2) The 100% Initial activity wells- 150 µL of assay buffer, 10 µL of heme and 10 µL of enzyme (COX-1 or COX-2) were added.
3) Inhibitor well- 150 µL of assay buffer, 10 µL of heme and 10 µL of enzyme were added.
4) 10 µL of inhibitor (3 concentrations) in DMSO was added to the inhibitor wells to yield a final […]
5) 10 µL of solvent (DMSO) was added to the 100% Initial activity wells and background wells.
7) 20 µL of colorimetric substrate solution (TMPD) was added to all wells.
8) 20 µL of arachidonic acid was added to all wells to yield a final concentration of 100 µM.
10) The absorbance was measured at 590 nm using a plate reader.
The calculations were carried out in the following manner:
1) The average absorbance of all samples was determined.
2) The absorbance of background wells was subtracted from absorbance of the 100% Initial activity […]
3) Percent inhibition = (100% Initial activity – Inhibitor wells/ 100% Initial activity)∗ 100 […]
Place the 96-well plate on a shaker for at least five minutes. […]

5-LOX = test: In vitro 5-LOX inhibitory assay (Abnova 5-LOX inhibitor screening assay kit); assay type: biochemical
Description: The newly synthesised compounds were screened for their ability to inhibit 5-LOX enzymes. […] (Page: S21, Supplementary file). […]
In vitro LOX inhibitory assay
Inhibitor Screening Assay Kit detects and measures the hydroperoxides produced in the lipoxygenation reaction using a purified LOX. The detection reaction is equally sensitive to hydroperoxides at various positions within the fatty acid and will work with fatty acids of any carbon length. It is thus a general detection method for 5-LOX and can be used to screen libraries of compounds for those which inhibit 5 -LOX enzymes.
1) Blank Wells- add 100 µL of assay buffer to at least two wells.
2) Positive Control Wells- Lipoxygenase (15-LO standard) add 90 µL 15-LO and 10 µL of assay buffer […]
3) 100% Initial Activity Wells- add 90 µL 15-LO and 10 µL of solvent (DMSO) (the same solvent to dissolve the inhibitor) to two wells. The 100% initial activity wells should result in approximately 10 […]
4) Inhibitor Wells- add 90 µL of sample and I10 µL of inhibitor to two wells.
5) Initiate the reaction by adding 10 µL of substrate (either arachidonic acid or linoleic acid) to all the wells. Place the 96-well plate on a shaker for at least five minutes.
6) Add 100 µL of chromogen to each well to stop enzyme catalysis and develop the reaction. Cover with a plate cover and place the 96-well plate on a shaker for at least five minutes.
7) Remove the cover and read the absorbance at 490-500 nm using a plate reader.
Inhibitors were dissolved in DMSO. The inhibitors were added to the assay in a final volume of 10 µL before initiating with substrate. Three concentrations were prepared (25, 50 and 100 µM) to determine the concentration produced 50% enzyme inhibition.
2) The absorbance of blank wells was subtracted from absorbance of the 100% Initial activity and the […]

[2] = po, 4 h, individual rats 1-3, 5 mg/kg orally, read-out: % Inhibition of oedema volume
[3] = relative to % inhibition of celecoxib at 4 h, individual rats 1-3

SMILES	Gross appearance of gastric mucosa (ulcerogenic potential) (gastric mucosa; 60 mg/kg)	inhibition in vivo at 5 mg/kg [1, 2]	% Relative potency (4h) celecoxib, Mean ± SD ([1]; relative to % inhibition of celecoxib at 4 h, group mean ± SD)	% Relative potency (4h) celecoxib [1, 3]	% Relative potency (4h) diclofenac, Mean ± SD ([1]; group mean ± SD)	% Relative potency (4h) diclofenac ([1]; individual rats 1-3)	Volume of oedema (ml) 0 ([1]; time 0, individual rats 1-3, 5 mg/kg orally, 5 mg/kg)	IC50 (COX-1)	IC50 (5-LOX)	Gross appearance of gastric mucosa (ulcerogenic potential) (gastric mucosa)	% Inhibition of oedema volume, Mean ± SD ([1]; 4 h, group mean ± SD, 5 mg/kg orally)	Abs diff., Mean ± SD ([1]; 4 h minus 0, group mean ± SD, 5 mg/kg orally)	inhibition in vivo at 5 mg/kg ([1]; po, 4 h, read-out: % Inhibition of oedema volume, 4 h, individual rats 1-3, 5 mg/kg orally)	inhibition in vivo at 5 mg/kg ([1]; po, 4 h, read-out: % Inhibition of oedema volume, Mean ± SD, 4 h, group mean ± SD, 5 mg/kg orally)	Volume of oedema (ml) 4h, Mean ± SD ([1]; po, 5 mg/kg, 4 h)	% inhibition of paw oedema compared with reference drugs (in words) ([1]; 4 h, 5 mg/kg orally, comparison with celecoxib or diclofenac sodium)	inhibition in vivo at 5 mg/kg ([1]; po, 4 h, group mean ± SD, 5 mg/kg orally, read-out: % Inhibition of oedema volume, Mean ± SD)
Cc1ccc(C(C)C)c(O)c1C=NNC(=O)c1cc(-c2ccc(Br)cc2)n[nH]1 [Compound 4b, 3-(4-Bromophenyl)-N'-(2-hydroxy-3-isopropyl-6-methylbenzylidene)-1H-pyrazole-5-carbohydrazide]	No gross ulceration	55.9%	148.9 ± 11.16%	159.0% and 136.90% and 150.70%	103.5 ± 12.68%	118.10% and 97.50% and 95.0%	5.15 mL	11.8 ± 0.15 µM	1.84 ± 0.06 µM	–	–	–	–	–	–	–	–
O=C(O)Cc1ccccc1Nc1c(Cl)cccc1Cl [Diclofenac sodium, reference compound]	–	–	–	–	–	–	–	–	–	no ulceration	52.53^b ± 4.59%	1.03^ab ± 0.12	47.3%	52.4%	5.30^ab ± 0.09 ml	–	–
Cc1ccc(C(C)C)c(O)c1C=NNC(=O)c1cc(-c2ccccc2)n[nH]1 [Compound 4a, N'-(2-Hydroxy-3-isopropyl-6-methylbenzylidene)-3-phenyl-1H-pyrazole-5-carbohydrazide]	No gross ulceration	84.2%	–	239.70% and 192.90% and 244.0%	156.4 ± 20.52%	178.10% and 137.30% and 153.80%	–	10.3 ± 0.1 µM	3.05 ± 0.067 µM	–	–	–	–	–	–	double % inhibition exhibited by Celecoxib	81.9%
